According to PMC7320011, “Rationally designed ruthenium complexes for 1- and 2-photon photodynamic therapy” (Nature Communications, 2020):

Experiment: Photobleaching by NMR
Assay type: physicochemical
Conditions: 450 nm, 10 min, 13.2 J cm^−2, CD3CN
Description: The sample was dissolved in air saturated 0.7 mL CD3CN and stored in a NMR tube in the dark. A ^1H-NMR spectrum was measured directly after preparation to ensure the identity of the sample. The sample was then irradiated at 450 nm with an Atlas Photonics LUMOS BIO irradiator (10 min, 13.2 J cm^−2). Following this treatment, a ^1H-NMR spectrum was again measured.

SMILES: CN(C)c1ccc(/C=C/c2ccnc(-c3cc(/C=C/c4ccc(N(C)C)cc4)ccn3)c2)cc1.CN(C)c1ccc(/C=C/c2ccnc(-c3cc(/C=C/c4ccc(N(C)C)cc4)ccn3)c2)cc1.CN(C)c1ccc(/C=C/c2ccnc(-c3cc(/C=C/c4ccc(N(C)C)cc4)ccn3)c2)cc1.F[P-](F)(F)(F)(F)F.F[P-](F)(F)(F)(F)F.[Ru+2] [compound 2, [Ru((E,E′)-4,4′-Bis[p-(N,N-dimethylamino)styryl]-2,2′-bipyridine)3][PF6]2]
- effect of irradiation on the molecular structure (NMR): decomposition of the compound
